{"source": "patent US8278072B1", "about": "“Method for synthesis of sialylated products using reversible sialylation” (Health Research, Inc., priority 2007, dated 2012)", "biological_target": "T1, ST3Gal-II (Rattus norvegicus, UniProt Q11205)", "T1 construct": "purchased Calbiochem", "T1 sequence (Q11205 1-350)": "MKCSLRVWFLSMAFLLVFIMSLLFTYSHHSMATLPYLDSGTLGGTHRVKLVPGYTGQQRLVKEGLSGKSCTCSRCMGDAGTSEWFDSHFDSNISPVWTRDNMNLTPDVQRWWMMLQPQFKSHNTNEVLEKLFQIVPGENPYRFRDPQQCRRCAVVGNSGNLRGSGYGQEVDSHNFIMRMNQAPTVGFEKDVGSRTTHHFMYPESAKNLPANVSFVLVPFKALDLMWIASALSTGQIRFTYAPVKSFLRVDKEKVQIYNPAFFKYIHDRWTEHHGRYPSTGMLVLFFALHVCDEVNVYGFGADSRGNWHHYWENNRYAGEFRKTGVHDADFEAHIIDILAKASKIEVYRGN", "test": "Reverse sialylation by ST3Gal-II in presence of citrate or 5′-nucleotides", "type": "biochemical", "conditions": "0.2 mM [3], 7 mM 5′-CMP, no [5], Dowex-1 Formate", "description": "FIG. 5. Effect of 5′-nucleotides on direct sialyltransferase activity (panel a) and reverse sialylation (panel b). a. Varying concentrations of 5′-CDP or 5′-CMP were added to 100 mM acceptor (specified below), 0.15 mM CMP-[9-^3H]NeuAc and either ST3Gal-II (0.2 mU), ST3Gal-III (0.5 mU) or ST6Gal-I (0.2 mU) for 4 h at 37° C. Products were separated using Sep-Pak C18 method. ST3Gal-III activity was measured using acceptor 4-O-MeGalβ1,4GlcNAcβ-O-Bn in the presence of 5′-CDP (●) and 5′-CMP (◯). ST6Gal-I activity was measured using Gal β1,4GlcNAcβ-O-Bn in the presence of 5′-CDP (▴) and 5′-CMP (Δ). ST3Gal-II using D-Fucβ1,3GalNAcα-O-Bn in the presence of 5′-CDP (▪) and 5′-CMP (□). b) Reverse sialylation by ST3Gal-II was measured in reaction mixtures containing 0.2 mM [9-^3H] [3], 7 mM 5′-CMP, ST3Gal-II (2 mU), D-Fucβ1,3GalNAcα-OBn (3.0 mM) and varying doses of either 5′-CDP (▴), 5′-UMP (◯) or 2-deoxy 5′-CMP (●) for 4 hours at 37° C. Reaction product ([9-^3H]NeuAcα2,3DFucβ1,3 GalNAcα-O-Bn) was isolated using Sep-Pak C18 method. In some runs, where was absent, the amount of CMP-NeuAc produced was quantified using the Dowex-1 Formate method in the presence of varying doses of 5′-CDP (▪).\nBesides pH other distinctions were also observed between forward and reverse sialylation. In this regard, citrate ions tended to inhibit forward sialylation but not reverse sialylation activity (Table V). For these studies, the effect of citrate on the forward sialylation activity of ST3Gal-I, ST3Gal-II, ST3Gal-III and ST6Gal-I was examined. Reverse sialylation activity of ST3Gal-II was also measured in terms of: i) the formation of CMP-NeuAc from 5′-CMP; and ii) the transfer of NeuAc from this newly synthesized CMP-NeuAc to another O-glycan. From the data (Table V), it is evident that citrate inhibits the direct sialylation activity of all the enzymes mentioned above. However, both the synthesis of CMP-[9-^3H]NeuAc from 5′-CMP as well as the synthesis of [9-^3H]NeuAcα2,3D-Fucβ1,3 GalNAcα-O-Bn using the newly formed CMP-[9-^3H]NeuAc through reverse sialylation of ST3Gal-II was not inhibited by citrate.\nThe effect of 5′-nucleotides on forward sialylation (FIG. 5a) and reverse sialylation (FIG. 5b) were examined. […] The overall formation of [9-^3H]NeuAcα2,3D-Fucβ1,3 GalNAcα-O-Bn by the two-step reverse sialylation process, however, was inhibited by 5′-CDP and this is consistent with the finding that 5′-CDP inhibits forward sialylation in the second step.", "data": [{"smiles": "Nc1ccn([C@@H]2O[C@H](COP(=O)(O)OP(=O)(O)O)[C@@H](O)[C@H]2O)c(=O)n1", "note": "[5′-CDP]", "values": [{"measurement": "Effect on first step of reverse sialylation (formation of CMP-[9-3H]NeuAc from 5′-CMP)", "result": "did not inhibit"}]}]}
